The test system of data set [1] is Plasmodium falciparum Dd2 asexual blood stage parasites. Briefly: microbe, parasite or virus in culture. Also on record: species or system Plasmodium falciparum Dd2 in human erythrocytes; single determination (one 11-point concentration-response curve). The settings on record: Plasmodium falciparum, DD2, Erythrocyte, 72 h.
Another data set can be described thus: in vitro. To be noted: human.
The mark [2] stands for this setting: HepG2-A16-CD81EGFP cells, uninfected.

Where two headings read alike, the source gives them in different places.

Consider `O=C1c2ccccc2C2=Nc3ccccc3SC(c3ccccc3F)C12` (centres unmarked) [MLS000562246-01], for which, in data set [1] (read-out: AC50), the half-maximal activity concentration (AC50) came out at 4730 nM. In the data set “in vitro” (setting [2]), the viability at 48 h, 1 µM came to 99% and the viability at 48 h, 3 µM worked out at 95%.
In the same order, the values of `CCOC(=O)C1=C(c2ccccc2)N=c2sc(=Cc3cc(OC)c(OC)c(OC)c3)c(=O)n2C1c1cccs1` (centres unmarked) [MLS000572607-01] are 5960 nM, 82% and 81%.
Regarding `Oc1cc2c(cc1CN1CCN(c3cccc(C(F)(F)F)c3)CC1)CCC2` [MLS000570420-01], the AC50 in data set [1] (read-out: AC50) was 944 nM. Besides, in the data set “in vitro” (setting [2]), the viability at 48 h, 1 µM is 102% and the viability at 48 h, 3 µM is 101%.
In the case of `CCCCC(O)(c1ccc(CC)cc1)C(CN1CCOCC1)c1ccccc1` (centres unmarked) [MLS001198887-01], in data set [1] (read-out: AC50), the AC50 was found to be 4730 nM. In addition, in “in vitro” (setting [2]), the viability at 48 h, 1 µM was determined as 88% and the viability at 48 h, 3 µM amounted to 85%.
Take `O=S(=O)(c1ccccc1)c1nnn2c1nc(NC1CCN(Cc3ccccc3)CC1)c1cc(Cl)ccc12` [MLS000925207-01]: the AC50 in data set [1] (read-out: AC50) amounted to 2990 nM. Besides, the viability at 66 h in “in vitro” (setting [2]) is 101%.
For the compound `N#Cc1nc(Nc2cc(F)cc(F)c2)c2ncn(CC(F)F)c2n1` [MLS002471784-01], in data set [1] (read-out: AC50), the AC50 was 4730 nM. Besides, in “in vitro” (setting [2]), the viability at 48 h, 1 µM turned out to be 97% and the viability at 48 h, 3 µM turned out to be 87%.
As to `CCN(CC)CCC(c1ccc2c(c1)OCO2)c1c(O)cc(OC)cc1OC` (centres unmarked) [MLS000879498-01], the AC50 in data set [1] (read-out: AC50) was found to be 4220 nM. In “in vitro” (setting [2]), the viability at 66 h is 103%.
On the same counts, the results for `Cc1onc(-c2ccc(Cl)cc2)c1-c1ccnn1S(=O)(=O)c1ccc(Cl)cc1` [MLS001111121-01] are 1880 nM and 100%.
On to `Cc1ccc(NC(=O)c2ccc(NCCCN3CCC(C)CC3)c([N+](=O)[O-])c2)cc1F` [MLS000689412-01], for which the AC50 in data set [1] (read-out: AC50) worked out at 6680 nM. Besides, in the data set “in vitro” (setting [2]), the viability at 48 h, 1 µM is 106% and the viability at 48 h, 3 µM stood at 104%.
In the same order, the values of `O=C(Nc1cccc(-c2nc3ccccc3[nH]2)c1)c1ccc(C(=O)Nc2cccc(-c3nc4ccccc4[nH]3)c2)cc1` [MLS000766212-01] are 2660 nM, 105% and 96%.
Take `CC(NCc1ccccc1)c1ccccc1O` (centres unmarked) [MLS000850790-01]: in data set [1] (read-out: AC50), the AC50 came out at 5310 nM. In addition, the viability at 66 h in the data set “in vitro” (setting [2]) was 96.3%.
In the case of `O=C(c1cnn2c(C(F)F)cc(-c3ccccc3)nc12)N1CCCCC1c1cccnc1` (centres unmarked) [MLS000728797-01], the AC50 in data set [1] (read-out: AC50) is 8410 nM. In the data set “in vitro” (setting [2]), the viability at 48 h was 102% and the viability at 48 h, 1 µM amounted to 102%.
Consider `COc1ccc(CCn2c(=N)c(C(=O)NC3CCCC3)cc3c(=O)n4cccc(C)c4nc32)cc1` [MLS001147827-01], for which, in data set [1] (read-out: AC50), the AC50 amounted to 750 nM. The viability at 66 h in “in vitro” (setting [2]) turned out to be 94.5%.
The compound `CCc1cccc(-n2c(=O)c3cccnc3n2CC(=O)NCc2ccc(C)cc2)c1` [NCGC00128446-01] registered an AC50 in data set [1] of 1680 nM. Besides, in “in vitro”, the viability is 83.3%.
Regarding `C#CCN1c2ccccc2Sc2cccnc21` [MLS001166384-01], in data set [1] (read-out: AC50), the AC50 came out at 6680 nM. Further, the viability at 66 h in “in vitro” (setting [2]) is 99.6%.
`CCC1(OC(=O)CN)C(=O)OCc2c1cc1n(c2=O)Cc2cc3ccccc3nc2-1` (centres unmarked) [MLS000766263-01] came in with an AC50 in data set [1] of 6680 nM. Also, in the data set “in vitro”, the viability turned out to be 24.7%.
As to `Cc1cc(N2CCN(C3CCCCC3)CC2)nc2cccc(O)c12` [MLS000118317-01], the concentration at half-maximal activity (AC50) in data set [1] (read-out: AC50) stood at 5310 nM. In the data set “in vitro” (setting [2]), the viability at 48 h, 1 µM was 104% and the viability at 48 h, 3 µM turned out to be 105%.
`CCCc1cc(=O)oc2cc(C)cc(OC(C)C(=O)NCC(O)c3ccccc3)c12` (centres unmarked) [MLS001158075-01]: the concentration at half-maximal activity (AC50) in data set [1] (read-out: AC50) is 841 nM. In the data set “in vitro” (setting [2]), the viability at 48 h, 1 µM turned out to be 84% and the viability at 48 h, 3 µM is 88%.
Turning to `O=S(=O)(c1ccc2ccccc2c1)N1CCN(C(S)=Nc2ccc(F)c(Cl)c2)CC1` [MLS000394708-01], in data set [1] (read-out: AC50), the AC50 was 1060 nM. For the same compound, in “in vitro” (setting [2]), the viability at 48 h, 1 µM came out at 111% and the viability at 48 h, 3 µM was found to be 98%.
On to `CC(C)Oc1ccc(C(CCNCc2ccc(O)cc2)c2ccccc2)cc1` (centres unmarked) [MLS001164341-01], for which, in data set [1] (read-out: AC50), the AC50 turned out to be 668 nM. Further, the viability at 66 h in “in vitro” (setting [2]) worked out at 102%.
On to `CCCCOc1ccc(C(=O)N/C(=C\c2cccc([N+](=O)[O-])c2)C(=O)OC(C)C)cc1` [MLS000574332-01], for which, in data set [1] (read-out: AC50), the AC50 was determined as 2110 nM. Besides, in “in vitro” (setting [2]), the viability at 48 h, 1 µM was determined as 101% and the viability at 48 h, 3 µM stood at 100%.
On the same counts, the results for `O=C(O)c1ccc(N/N=C/c2cn(-c3ccccc3)nc2-c2cccs2)cc1` [MLS000759699-01] are 2660 nM, 112% and 103%.
With `CCCc1nnc(NC(=O)c2cn(CC)c3cc(N4CCN(C)CC4)c(F)cc3c2=O)s1` [MLS001049245-01], in data set [1] (read-out: AC50), the AC50 came to 8410 nM. Moreover, the viability at 66 h in “in vitro” (setting [2]) was found to be 105%.
Take `CCc1cccc2sc(N3CCN(C(=O)c4ccc([N+](=O)[O-])o4)CC3)nc12` [MLS001234237-01]: the AC50 in data set [1] (read-out: AC50) is 1060 nM. In “in vitro” (setting [2]), the viability at 48 h, 1 µM worked out at 106% and the viability at 48 h, 3 µM amounted to 115%.
In the same order, the values of `CCOc1ccc(NC2=C(OC)C(=O)c3ccccc3C2=O)cc1` [MLS000588108-01] are 376 nM, 101% and 98%.
For the compound `CCN(CC)C1=NC(=[N+](CC)CC)c2ccccc21.[O-][Cl+3]([O-])([O-])O` [MLS000565348-01], the concentration at half-maximal activity (AC50) in data set [1] (read-out: AC50) turned out to be 5310 nM. Further, the viability in “in vitro” came to 81.5%.
With `CCN1CCC(Nc2ccnc3cc(Cl)ccc23)CC1` [MLS000737411-01], in data set [1] (read-out: AC50), the AC50 was 188 nM. In addition, in the data set “in vitro” (setting [2]), the viability at 48 h, 1 µM was found to be 99% and the viability at 48 h, 3 µM turned out to be 100%.
Consider `Oc1ccc(C2NCc3ccccc3-n3cccc32)cc1Cl` (centres unmarked) [MLS000047999-01], for which the AC50 in data set [1] (read-out: AC50) turned out to be 1500 nM. In the data set “in vitro” (setting [2]), the viability at 48 h, 1 µM was 99% and the viability at 48 h, 3 µM is 90%.
On the same counts, the results for `CCOC(=O)c1c(C)n(-c2ccc(F)cc2)c2ccc(O)cc12` [MLS001195957-01] are 6680 nM, 109% and 93%.
On the same counts, the results for `Oc1ccc(Cl)cc1CNCc1cccc2ccccc12` [MLS002207460-01] are 841 nM, 103% and 107%.
In the same order, the values of `CCOc1cc(C(=O)N2CCC(CC3CC(c4cccc(Br)c4)=NO3)(C(=O)NCC3CCCCC3)CC2)cc(OCC)c1OCC` (centres unmarked) [MLS001074456-01] are 1680 nM, 106% and 103%.
As for `CCOC(=O)c1c(CNc2ccncc2)n(C)c2cc(Br)c(O)cc12` [MLS000714612-01], the AC50 in data set [1] (read-out: AC50) was 2660 nM. Further, in the data set “in vitro” (setting [2]), the viability at 48 h, 1 µM came to 90% and the viability at 48 h, 3 µM is 86%.
Regarding `Cc1ccc2sc(N3CCN(C(=O)c4ccc([N+](=O)[O-])o4)CC3)nc2c1C` [MLS001234068-01], in data set [1] (read-out: AC50), the AC50 is 5310 nM. Further, in the data set “in vitro” (setting [2]), the viability at 48 h, 1 µM came to 111% and the viability at 48 h, 3 µM came to 105%.
On the same counts, the results for `COc1cc(NC(=O)c2cc3c(Cl)nc4ccccc4c3s2)cc(OC)c1OC` [MLS000582472-01] are 4730 nM, 90% and 84%.
Consider `Clc1ccc(-c2nnc(N3CCCC3)nn2)cc1` [MLS000038815-01], for which the AC50 in data set [1] (read-out: AC50) is 531 nM. The viability at 66 h in “in vitro” (setting [2]) stood at 102%.
Take `O=C(CN1C2=NCCCN2c2ccccc21)c1ccc(Cl)cc1Cl` [MLS000662689-01]: in data set [1] (read-out: AC50), the AC50 came out at 6680 nM. For the same compound, in the data set “in vitro” (setting [2]), the viability at 48 h, 1 µM amounted to 99% and the viability at 48 h, 3 µM came to 94%.
As to `COc1cc(O)c(C(CCN2CCCC(C)C2)c2cc(OC)c(OC)c(OC)c2)c(OC)c1` (centres unmarked) [MLS000879467-01], the AC50 in data set [1] (read-out: AC50) is 1880 nM. Further, in “in vitro” (setting [2]), the viability at 48 h, 1 µM was found to be 90% and the viability at 48 h, 3 µM turned out to be 88%.
On the same counts, the results for `Cc1ccccc1NC(=O)c1cc(C(=O)c2cc(Cl)ccc2O)cn(-c2ccccc2C)c1=O` [MLS000374594-01] are 376 nM, 98% and 93%.
On the same counts, the results for `Cc1cc(NC(=O)CN2CCN(c3ccc(O)cc3)CC2)no1` [MLS000565196-01] are 4730 nM, 104% and 107%.
On the same counts, the results for `COc1ccc(C(C(=O)Nc2ccc(C(C)C)cc2)N(Cc2ccco2)C(=O)CC2NC(=O)NC2=O)cc1` (centres unmarked) [MLS000729756-01] are 6680 nM, 99% and 94%.
For the compound `COc1ccc(C(CCN2CCCCC2)c2c(O)cc(OC)cc2OC)cc1` (centres unmarked) [MLS000879486-01], the AC50 in data set [1] (read-out: AC50) worked out at 1330 nM. Besides, in the data set “in vitro” (setting [2]), the viability at 48 h, 1 µM was found to be 90% and the viability at 48 h, 3 µM is 85%.
On the same counts, the results for `COc1ccc(CNCc2cc3c(C(C)(C)C)nn(-c4ccccc4)c3[nH]c2=O)cc1` [MLS000067276-01] are 841 nM, 103% and 109%.
On the same counts, the results for `O=S(=O)(c1ccc2ccccc2c1)N1CCN(/C(S)=N/c2ccccc2F)CC1` [MLS000760214-01] are 4220 nM, 103% and 102%.
Consider `O=C(NCCCN1CCCC1)c1ccc2c(c1)N([S+](=O)([O-])c1ccccc1F)CC2` [NCGC00430450-01], for which the AC50 in data set [1] (read-out: AC50) stood at 9440 nM. Besides, the viability at 66 h in “in vitro” (setting [2]) was 97.4%.
In the same order, the values of `COc1cccc(NC(=O)c2ccc(NCCCN3CCC(C)CC3)c([N+](=O)[O-])c2)c1` [MLS000689409-01] are 7500 nM and 108%.
On the same counts, the results for `OC(CNCc1cccc(Cl)c1)c1ccccc1` (centres unmarked) [MLS000674343-01] are 4730 nM and 106%.
In the same order, the values of `CCCCN(C(=O)c1ccco1)c1nnc(-c2cc(OC)c(OC)c(OC)c2)s1` [MLS000075381-01] are 2990 nM and 104%.

Source of the values: PMC7822874, “Chemoprotective antimalarials identified through quantitative high-throughput screening of Plasmodium blood and liver stage parasites” (Scientific Reports, 2021).
